{
  "source": "patent US20240082218A1",
  "about": "“PHARMACEUTICAL COMBINATIONS COMPRISING A KRAS G12C INHIBITOR AND USES OF A KRAS G12C INHIBITOR FOR THE TREATMENT OF CANCERS” (priority 2020, published 2024)",
  "key": {"KRAS G12C_Y96C (GDP)": {"target": "T1, KRAS G12C_Y96C (GDP) (Homo sapiens, UniProt P01116, G12C/Y96C)", "T1 construct": "the cDNA encoding KRAS, NRAS, and HRAS comprised aa 1-169; made in house; host or cells: E. coli BL21(DE3)", "assay": "Covalent rate constants by RapidFire MS", "type": "binding", "conditions": "n=2", "protocol": "(§1) The E. coli expression constructs used in this study were based on the pET system and generated using standard molecular cloning techniques. […] Point mutations were introduced with the QuikChange Lightning Site-Directed Mutagenesis kit (Agilent). All final expression constructs were sequence verified by Sanger sequencing.\n(§2) Cell pellets were resuspended in buffer A (20 mM Tris, 500 mM NaCl, 5 mM imidazole, 2 mM TCEP, 10% glycerol, pH 8.0) supplemented with Turbonuclease (Merck) and cOmplete protease inhibitor tablets (Roche). The cells were lysed by three passages through a homogenizer (Avestin) at 800-1000 bar and the lysate clarified by centrifugation at 40000 g for 40 min. The lysate was loaded onto a HisTrap HP 5 ml column (Cytiva) mounted on an ÅKTA Pure 25 chromatography system (Cytiva). Contaminating proteins were washed away with buffer A and bound protein was eluted with a linear gradient to buffer B (buffer A supplemented with 200 mM imidazole). During dialysis O/N the N-terminal His affinity purification tags on the non-tagged and avi-tagged proteins were cleaved off by TEV or HRV3C protease, respectively. The protein solution was re-loaded onto a HisTrap column and the flow through containing the target protein collected. Guanosine 5′-diphosphate sodium salt (GDP, Sigma) or GppNHp-Tetralithium salt (Jena Bioscience) was added to a 24-32× molar excess over protein. […] After 1 hour at room temperature the buffer was exchanged on a PD-10 desalting column (Cytiva) against 40 mM Tris, 200 mM (NH4)2SO4, 0.1 mM ZnCl2, pH 8.0. […] 40 U Shrimp Alkaline Phosphatase (New England Biolabs) was added to GppNHp containing samples only. The sample was then incubated for 1 hour at 5° C. Finally, MgCl2 was added to a concentration of about 30 mM.\n(§3) Reactions were stopped at different time points by addition of formic acid to 1%. […] In parallel, compound solubility was assessed by nephelometry and compound concentrations resulting in measurable turbidity were excluded from curve fitting. […]"}, "KRAS G12C_Y96D (GDP)": {"target": "T2, KRAS G12C_Y96D (GDP) (Homo sapiens, UniProt P01116, G12C/Y96D)", "T2 construct": "the cDNA encoding KRAS, NRAS, and HRAS comprised aa 1-169; made in house; host or cells: E. coli BL21(DE3)", "assay": "Covalent rate constants by RapidFire MS", "type": "binding", "conditions": "n=3", "protocol": "as §1, §2, §3"}, "KRAS G12C_H95Q (GDP)": {"target": "T3, KRAS G12C_H95Q (GDP) (Homo sapiens, UniProt P01116, G12C/H95Q)", "T3 construct": "the cDNA encoding KRAS, NRAS, and HRAS comprised aa 1-169; made in house; host or cells: E. coli BL21(DE3)", "assay": "Covalent rate constants by RapidFire MS", "type": "binding", "conditions": "n=2", "protocol": "as §1, §2, §3"}, "Blood pharmacokinetics": {"assay": "Blood pharmacokinetics", "conditions": "in vivo"}, "[1]": {"test_system": "Ba/F3 cells expressing FLAG-KRAS G12C/Y96C", "assay": "Ba/F3 3-day proliferation, Cell titer glo (Example 12)", "type": "cell-based, murine", "conditions": "Mus musculus", "protocol": "(§4) The parental Ba/F3 cells were cultured in the presence of 5 ng/ml of recombinant murine IL-3 (Life Technologies, #PMC0035).\n(§5) The mutant plasmids were transfected into the Ba/F3 WT cells by electroporation with the NEON transfection kit (Invitrogen, #MPK10025).\n(§6) Ba/F3 cells are normally dependent on IL-3 to survive and proliferate, however, by expressing oncogenes they are able to switch their dependency from IL-3 to the expressed oncogene. […] Cell number and viability was measured every three days and after seven days the IL-3 withdrawal was completed.\n(§7) Treatment was performed on the same day with a Tecan D300e drug dispenser. Viability was detected on the same day of treatment for the start plate (Day 0) and three days post-treatment (Day 3) using the CellTiter-Glo Luminescent Cell Viability Assay (Promega, #G7573) on a Tecan infinitiy M200 Pro reader (Intergration Time 1000 ms).\n(§8) To determine the growth, the three days post-treatment (Day 3) readout was normalized to start plate (Day 0). The percentage viability was then calculated by normalizing treated wells to DMSO treated control samples. XLfit was used to make the fitted curve with a Sigmoidal Dose-Response Model (four-parameter curve) (FIG. 7)."}, "[2]": {"test_system": "Ba/F3 cells expressing FLAG-KRAS G12C/R68S", "assay": "Ba/F3 3-day proliferation, Cell titer glo (Example 12)", "type": "cell-based, murine", "conditions": "Mus musculus", "protocol": "as §4, §5, §6, §7, §8"}, "[3]": {"test_system": "Ba/F3 cells expressing FLAG-KRAS G12C/Y96D", "assay": "Ba/F3 3-day proliferation, Cell titer glo (Example 12)", "type": "cell-based, murine", "conditions": "Mus musculus", "protocol": "as §4, §5, §6, §7, §8"}, "[4]": {"test_system": "Ba/F3 cells expressing FLAG-KRAS G12C/H95R", "assay": "Ba/F3 3-day proliferation, Cell titer glo (Example 12)", "type": "cell-based, murine", "conditions": "Mus musculus", "protocol": "as §4, §5, §6, §7, §8"}, "[5]": {"assay": "Oral exposure and tolerability in mouse"}, "KRASG12C [6]": {"target": "T4, KRASG12C (Homo sapiens, UniProt P01116, G12C)", "assay": "KRASG12C target occupancy in LU99 xenografts after 5 days treatment", "type": "in vivo", "set-up": "KRASG12C target occupancy was assessed after 5 days treatment of LU99 xenografts; endogenous in cells; host or cells: LU99 tumour xenografts in nude mice", "conditions": "single-agent 30 mg/kg vs 100 mg/kg"}, "H358 cancer cells": {"test_system": "H358 cancer cells", "assay": "Antiproliferation in H358 cancer cells", "type": "cell-based", "conditions": "Homo sapiens, NCI-H358"}, "KRASG12C [7]": {"target": "T4, KRASG12C", "assay": "cRAF recruitment 6 h cellular assay", "type": "cell-based"}, "4-week toxicity study": {"assay": "4-week toxicity study", "type": "in vivo", "conditions": "rat"}, "[8]": {"test_system": "MIA PaCa-2 (KRASG12C pancreas) xenograft", "assay": "Anti-tumor activity in MIA PaCa-2 xenografts", "type": "in vivo, mice"}, "[9]": {"test_system": "KRAS G12C-mutated cell lines", "assay": "Proliferation cellular assay", "type": "cell-based"}, "KYSE410 xenograft": {"test_system": "KYSE410 xenograft", "assay": "Anti-tumor activity in KYSE410 (esophageal) xenografts", "type": "in vivo, mice", "conditions": "10, 30 and 100 mg/kg oral daily"}, "[10]": {"conditions": "BaF3, 72 h, 3 days, 4 independent experiments, read-out: GI50 ± St DV"}},
  "note": "Where two headings read alike, the source gives them in different places. Marks after values point to notes of the source that are not given here.",
  "data": [
    {"molecule": "C=CC(=O)N1CC2(CC(n3nc(-c4ccc5c(cnn5C)c4)c(-c4c(Cl)c(C)cc5[nH]ncc45)c3C)C2)C1", "note": "(single isomer, unassigned) [Compound A, 1-{6-[(4M)-4-(5-Chloro-6-methyl-1H-indazol-4-yl)-5-methyl-3-(1-methyl-1H-indazol-5-yl)-1H-pyrazol-1-yl]-2-azaspiro[3.3]heptan-2-yl}prop-2-en-1-one]", "values": [
      {"measurement": "Second order rate constant (Kinact/KI)", "setting": "KRAS G12C_Y96C (GDP)", "result": 650, "unit": "M⁻¹ s⁻¹"},
      {"measurement": "Second order rate constant (Kinact/KI)", "setting": "KRAS G12C_Y96D (GDP)", "result": 90, "unit": "M⁻¹ s⁻¹"},
      {"measurement": "Second order rate constant (Kinact/KI)", "setting": "KRAS G12C_H95Q (GDP)", "result": 9500, "unit": "M⁻¹ s⁻¹"},
      {"measurement": "half-life", "setting": "Blood pharmacokinetics", "result": "~2", "unit": "h"},
      {"measurement": "GI50", "setting": "[1]; [10]", "result": "> 1000", "unit": "nM"},
      {"measurement": "GI50", "setting": "[1]; BaF3, read-out: GI50", "result": "> 1000", "unit": "nM"},
      {"measurement": "GI50", "setting": "[2]; [10]", "result": "> 1000", "unit": "nM"},
      {"measurement": "GI50", "setting": "[2]; BaF3, read-out: GI50", "result": "> 1000", "unit": "nM"},
      {"measurement": "GI50", "setting": "[3]; [10]", "result": "> 1000", "unit": "nM"},
      {"measurement": "GI50", "setting": "[3]; BaF3, read-out: GI50", "result": "> 1000", "unit": "nM"},
      {"measurement": "GI50", "setting": "[4]; [10]", "result": "24 ± 6", "unit": "nM"},
      {"measurement": "GI50", "setting": "[4]; BaF3, read-out: GI50", "result": "24 ± 6", "unit": "nM"},
      {"measurement": "oral bioavailability", "setting": "[5]", "result": "orally bioavailable"},
      {"measurement": "tolerability", "setting": "[5]", "result": "well-tolerated"},
      {"measurement": "reduction of free KRAS^G12C in tumors", "setting": "KRASG12C [6]", "result": "less reduction of free KRAS^G12C"},
      {"measurement": "GI50", "setting": "H358 cancer cells", "result": 30, "unit": "nM"},
      {"measurement": "EC50", "setting": "KRASG12C [7]", "result": 20, "unit": "nM"},
      {"measurement": "tolerability in 4-week toxicity study", "setting": "4-week toxicity study", "result": "well tolerated"},
      {"measurement": "anti-tumor activity", "setting": "[8]; 3 mg/kg daily oral", "result": "tumor stasis"},
      {"measurement": "anti-tumor activity", "setting": "[8]; 5 mg/kg twice daily, compared with 10 mg/kg daily", "result": "comparable regression"},
      {"measurement": "anti-tumor activity", "setting": "[8]; 10 mg/kg daily oral", "result": "tumor regression"},
      {"measurement": "anti-tumor activity", "setting": "[8]; 15 mg/kg twice daily, compared with 30 mg/kg qd", "result": "same tumor regression"},
      {"measurement": "tumor growth inhibition by schedule", "setting": "[8]; 30 mg/kg daily compared to 30 mg/kg q3d or 90 mg/kg q3d", "result": "better tumor growth inhibition"},
      {"measurement": "anti-tumor activity", "setting": "[8]; 30 mg/kg daily oral", "result": "tumor regression"},
      {"measurement": "anti-tumor activity", "setting": "[8]; 100 mg/kg daily oral", "result": "tumor regression"},
      {"measurement": "pattern of maximal response", "setting": "[8]; 10, 30 and 100 mg/kg oral daily", "result": "regression"},
      {"measurement": "GI50", "setting": "[9]", "result": 30, "unit": "nM"},
      {"measurement": "pattern of maximal response", "setting": "KYSE410 xenograft", "result": "moderate tumor growth inhibition"}
    ]}
  ]
}
